Measurements from US9302999B2, “Substituted triazoles as herbicides” (E. I. DU PONT DE NEMOURS AND COMPANY, priority 2012, dated 2016).
Read-outs that look alike come from different tables or passages of the source.

How the values were obtained:
Type in all cases: in vivo
[1] = system: foxtail, giant (giant foxtail, Setaria faberii); test: Test A pre-/postemergence: foxtail, giant; settings: for pest or weed control at 125 g/ha / pest or weed control at 500 g/ha: Setaria faberi, 240 h
Outline: (§1)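 Compounds, formulated with surfactant in non-phytotoxic solvent, were applied as a directed soil spray preemergence and as postemergence sprays to 2–10 cm, one- to two-leaf seedlings grown in loam soil blended with sand; visual injury, 0–100, assessed ~10 days post-treatment against untreated controls.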

[2] = system: foxtail, giant (giant foxtail, Setaria faberii); test: Test C pre-/postemergence: foxtail, giant
Outline: (§2)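 Visual injury scored 0–100 (100 = complete control) against untreated controls after 13–15 greenhouse days. Surfactant-containing solvent formulations applied either to soil after sowing (loam/sand) or over 1- to 4-leaf plants, 2–18 cm tall.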

[3] = system: crabgrass, large (large crabgrass, Digitaria sanguinalis); test: Test A pre-/postemergence: crabgrass, large; settings: for pest or weed control at 125 g/ha / pest or weed control at 500 g/ha: Digitaria sanguinalis, 240 h
Outline: as §1

[4] = system: velvetleaf (Abutilon theophrasti); test: Test A pre-/postemergence: velvetleaf; settings: for pest or weed control at 125 g/ha / pest or weed control at 500 g/ha: Abutilon theophrasti, 240 h
Outline: as §1

[5] = system: chickweed (common chickweed, Stellaria media); test: Test C postemergence: chickweed
Outline: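 Response values are visual ratings, 0 (no effect) to 100 (complete control), made by comparison with untreated controls 13 to 15 days after postemergence treatment of greenhouse-grown potted plants that were 2 to 18 cm high at spraying.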

[6] = system: pigweed (Amaranthus retroflexus); test: Test A pre-/postemergence: pigweed; settings: for pest or weed control at 125 g/ha / pest or weed control at 500 g/ha: Amaranthus retroflexus, 240 h
Outline: as §1

[7] = system: ducksalad (Heteranthera limosa); test: Test B flooded paddy: ducksalad; settings: Flood, applied to paddy water at 2-leaf stage, visually evaluated after 13 to 15 days
Outline: (§3)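 Two-leaf-stage plants, pots flooded (3 cm above soil) and treated through the water, which stayed at that depth. After 13–15 days in greenhouse conditions, visual assessment versus controls: 0 is no effect, 100 complete control, dash means no result.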

[8] = system: ragweed (common ragweed, Ambrosia elation); test: Test C pre-/postemergence: ragweed
Outline: as §2

[9] = system: wild oat (Avena fatua); test: Test C pre-/postemergence: wild oat
Outline: as §2

[10] = system: barnyardgrass (Echinochloa crus-galli); test: Test B flooded paddy: barnyardgrass; settings: Flood, applied to paddy water at 2-leaf stage, visually evaluated after 13 to 15 days
Outline: as §3

[11] = system: kochia (Kochia scoparia); test: Test C pre-/postemergence: kochia
Outline: as §2

[12] = Postemergence, 125 g ai/ha, 0 to 100 scale, 0 is no effect, 100 is complete control
[13] = Postemergence, 500 g ai/ha, 0 to 100 scale, 0 is no effect, 100 is complete control
[14] = Preemergence, 125 g ai/ha, 0 to 100 scale where 0 is no effect and 100 is complete control
[15] = Preemergence, 500 g ai/ha, 0 to 100 scale (0 no effect, 100 complete control)
[16] = Postemergence, 31 g ai/ha, scale 0 to 100 (0 no effect, 100 complete control)
[17] = Postemergence, 62 g ai/ha, scale 0 to 100 (0 no effect, 100 complete control)
[18] = Postemergence, 125 g ai/ha, scale 0 to 100, 0 no effect, 100 complete control
[19] = Postemergence, 250 g ai/ha, scale 0 to 100
[20] = Preemergence, 31 g ai/ha, scale 0 (no effect) to 100 (complete control)
[21] = Preemergence, 125 g ai/ha, scale 0 to 100, 0 no effect, 100 complete control
[22] = Preemergence, 250 g ai/ha, scale 0 to 100, 0 no effect, 100 complete control
[23] = 31 g ai/ha, scale 0 to 100 (0 no effect, 100 complete control)
[24] = 62 g ai/ha, scale 0 to 100 (0 no effect, 100 complete control)
[25] = 125 g ai/ha, scale 0 to 100, 0 no effect, 100 complete control
[26] = Postemergence, 250 g ai/ha, scale 0 to 100 (0 no effect, 100 complete control)
[27] = Preemergence, 62 g ai/ha, scale 0 to 100, 0 no effect, 100 complete control

CCOc1nn(-c2ccc(Cl)cc2)nc1Cc1ccnc(C(F)(F)F)c1 [Compound 188]
65: Plant response rating, Ragweed [8, 16]
45: Plant response rating, Oat, Wild [9, 16]
60: Plant response rating, Oat, Wild [9, 17] | Plant response rating, Oat, Wild [9, 18]
100: Plant response rating, Foxtail, Giant [1, 14] | Plant response rating, Foxtail, Giant [1, 15] | Plant response rating, Foxtail, Giant [2, 19] | Plant response rating, Foxtail, Giant [2, 20] | Plant response rating, Foxtail, Giant ([2]; Preemergence, 62 g ai/ha, scale of 0 to 100, 0 is no effect, 100 is complete control) | Plant response rating, Foxtail, Giant [2, 21] | Plant response rating, Foxtail, Giant [2, 22] | Plant response rating, Crabgrass, Large [3, 14] | Plant response rating, Crabgrass, Large [3, 15] | Plant response rating, Pigweed [6, 12] | Pigweed plant response rating [6, 13] | Plant response rating, Pigweed [6, 14] | Plant response rating, Pigweed [6, 15]
70: Plant response rating, Velvetleaf [4, 12] | Plant response rating, Kochia [11, 16]
90: Plant response rating, Foxtail, Giant [1, 12] | Foxtail, Giant plant response rating [1, 13] | Plant response rating, Crabgrass, Large [3, 12] | Crabgrass, Large plant response rating [3, 13] | Velvetleaf plant response rating [4, 13] | Plant response rating, Velvetleaf [4, 15] | Plant response rating, Chickweed [5, 24] | Plant response rating, Chickweed [5, 25] | Plant response rating, Ducksalad (0 to 100 scale, 0 is no effect, 100 is complete control) ([7]; 125 g ai/ha) | Plant response rating, Oat, Wild [9, 26] | Plant response rating, Kochia [11, 17] | Plant response rating, Kochia [11, 18] | Plant response rating, Kochia [11, 26]
75: Plant response rating, Ragweed [8, 17] | Plant response rating, Barnyardgrass (0 to 100 scale, 0 is no effect, 100 is complete control) ([10]; 125 g ai/ha)
85: Plant response rating, Ragweed [8, 18] | Plant response rating, Ragweed [8, 26]
40: Plant response rating, Velvetleaf [4, 14]
98: Plant response rating, Foxtail, Giant [2, 16] | Plant response rating, Foxtail, Giant [2, 17] | Plant response rating, Foxtail, Giant [2, 18]
95: Plant response rating, Chickweed ([5]; 250 g ai/ha, scale 0 to 100)
80: Plant response rating, Chickweed [5, 23]

CCOc1nn(-c2ccc(F)cc2)nc1Cc1ccnc(C(F)(F)F)c1 [Compound 196, 4-[[5-ethoxy-2-(4-fluorophenyl)-2H-1,2,3-triazol-4-yl]methyl]-2-(trifluoromethyl)pyridine]
85: Plant response rating, Foxtail, Giant [2, 16] | Plant response rating, Foxtail, Giant [2, 17] | Plant response rating, Ragweed [8, 17] | Plant response rating, Oat, Wild [9, 17] | Plant response rating, Oat, Wild [9, 18] | Plant response rating, Barnyardgrass (0 to 100 scale, 0 is no effect, 100 is complete control) ([10]; 250 g ai/ha) | Plant response rating, Kochia [11, 16]
100%: pest or weed control at 125 g/ha ([1]; pre-emergence, Preemergence, 125 g ai/ha, 0 to 100 scale where 0 is no effect and 100 is complete control, read-out: Plant response rating, Foxtail, Giant) | pest or weed control at 500 g/ha ([1]; pre-emergence, Preemergence, 500 g ai/ha, 0 to 100 scale (0 no effect, 100 complete control), read-out: Plant response rating, Foxtail, Giant) | pest or weed control at 125 g/ha ([3]; pre-emergence, Preemergence, 125 g ai/ha, 0 to 100 scale where 0 is no effect and 100 is complete control, read-out: Plant response rating, Crabgrass, Large) | pest or weed control at 500 g/ha ([3]; pre-emergence, Preemergence, 500 g ai/ha, 0 to 100 scale (0 no effect, 100 complete control), read-out: Plant response rating, Crabgrass, Large) | pest or weed control at 125 g/ha ([4]; post-emergence, Postemergence, 125 g ai/ha, 0 to 100 scale, 0 is no effect, 100 is complete control, read-out: Plant response rating, Velvetleaf) | pest or weed control at 500 g/ha ([4]; post-emergence, Postemergence, 500 g ai/ha, 0 to 100 scale, 0 is no effect, 100 is complete control, read-out: Velvetleaf plant response rating) | pest or weed control at 500 g/ha ([4]; pre-emergence, Preemergence, 500 g ai/ha, 0 to 100 scale (0 no effect, 100 complete control), read-out: Plant response rating, Velvetleaf) | pest or weed control at 125 g/ha ([6]; post-emergence, Postemergence, 125 g ai/ha, 0 to 100 scale, 0 is no effect, 100 is complete control, read-out: Plant response rating, Pigweed) | pest or weed control at 500 g/ha ([6]; post-emergence, Postemergence, 500 g ai/ha, 0 to 100 scale, 0 is no effect, 100 is complete control, read-out: Pigweed plant response rating) | pest or weed control at 125 g/ha ([6]; pre-emergence, Preemergence, 125 g ai/ha, 0 to 100 scale where 0 is no effect and 100 is complete control, read-out: Plant response rating, Pigweed) | pest or weed control at 500 g/ha ([6]; pre-emergence, Preemergence, 500 g ai/ha, 0 to 100 scale (0 no effect, 100 complete control), read-out: Plant response rating, Pigweed)
98: Plant response rating, Chickweed [5, 23] | Plant response rating, Chickweed [5, 24] | Plant response rating, Kochia [11, 27] | Plant response rating, Kochia [11, 21] | Plant response rating, Kochia [11, 22]
90: Plant response rating, Foxtail, Giant [2, 18] | Plant response rating, Foxtail, Giant [2, 19] | Plant response rating, Ragweed [8, 18] | Plant response rating, Ragweed [8, 26] | Plant response rating, Ragweed [8, 22] | Plant response rating, Oat, Wild [9, 26] | Plant response rating, Oat, Wild [9, 27] | Plant response rating, Oat, Wild [9, 21] | Plant response rating, Oat, Wild [9, 22] | Plant response rating, Kochia [11, 17] | Plant response rating, Kochia [11, 18] | Plant response rating, Kochia [11, 26] | Plant response rating, Kochia [11, 20]
70: Plant response rating, Ragweed [8, 16]
100: Plant response rating, Foxtail, Giant [2, 20] | Plant response rating, Foxtail, Giant [2, 27] | Plant response rating, Foxtail, Giant [2, 21] | Plant response rating, Foxtail, Giant [2, 22] | Plant response rating, Chickweed [5, 25] | Plant response rating, Chickweed ([5]; 250 g ai/ha, scale 0 to 100) | Plant response rating, Ducksalad (0 to 100 scale, 0 is no effect, 100 is complete control) ([7]; 250 g ai/ha)
40: Plant response rating, Ragweed [8, 20]
60: Plant response rating, Ragweed [8, 27]
55: Plant response rating, Oat, Wild [9, 16]
80%: pest or weed control at 125 g/ha ([4]; pre-emergence, Preemergence, 125 g ai/ha, 0 to 100 scale where 0 is no effect and 100 is complete control, read-out: Plant response rating, Velvetleaf)
90%: pest or weed control at 125 g/ha ([1]; post-emergence, Postemergence, 125 g ai/ha, 0 to 100 scale, 0 is no effect, 100 is complete control, read-out: Plant response rating, Foxtail, Giant) | pest or weed control at 500 g/ha ([1]; post-emergence, Postemergence, 500 g ai/ha, 0 to 100 scale, 0 is no effect, 100 is complete control, read-out: Foxtail, Giant plant response rating) | pest or weed control at 125 g/ha ([3]; post-emergence, Postemergence, 125 g ai/ha, 0 to 100 scale, 0 is no effect, 100 is complete control, read-out: Plant response rating, Crabgrass, Large) | pest or weed control at 500 g/ha ([3]; post-emergence, Postemergence, 500 g ai/ha, 0 to 100 scale, 0 is no effect, 100 is complete control, read-out: Crabgrass, Large plant response rating)
80: Plant response rating, Ragweed [8, 21] | Plant response rating, Oat, Wild [9, 20]
